Experiments:
[1] = molecular target: T1, Dual specificity tyrosine-phosphorylation-regulated kinase 2 (Homo sapiens) (UniProt Q92630); experiment: Selectivity interaction (Kinase panel (DSF assay)) EUB0001559a DYRK2
T1 sequence (whole entry): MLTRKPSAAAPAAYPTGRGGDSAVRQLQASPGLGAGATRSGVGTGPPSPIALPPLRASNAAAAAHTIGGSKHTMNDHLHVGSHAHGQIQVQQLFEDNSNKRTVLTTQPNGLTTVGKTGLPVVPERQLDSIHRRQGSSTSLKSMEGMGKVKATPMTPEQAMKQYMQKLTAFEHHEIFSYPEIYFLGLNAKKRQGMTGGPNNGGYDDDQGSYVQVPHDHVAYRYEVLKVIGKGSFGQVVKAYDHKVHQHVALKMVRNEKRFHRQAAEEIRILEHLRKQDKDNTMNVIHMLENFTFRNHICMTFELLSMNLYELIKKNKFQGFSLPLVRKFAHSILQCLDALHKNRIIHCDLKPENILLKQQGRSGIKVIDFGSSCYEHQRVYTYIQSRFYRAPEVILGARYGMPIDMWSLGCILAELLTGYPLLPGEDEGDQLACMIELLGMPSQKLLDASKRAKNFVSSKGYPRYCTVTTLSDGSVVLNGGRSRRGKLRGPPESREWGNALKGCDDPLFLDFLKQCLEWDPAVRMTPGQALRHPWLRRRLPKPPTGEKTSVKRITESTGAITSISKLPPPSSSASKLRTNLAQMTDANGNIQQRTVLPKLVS

[2] = molecular target: Serine/threonine-protein kinase 10 (Homo sapiens) (UniProt O94804); experiment: Selectivity interaction (ActivX KiNativ screen (kinase selectivity in THP-1 cell lysates)) EUB0000639a STK10; type: subcellular; settings: lysate, at 0.04 µM
[3] = molecular target: Calcium/calmodulin-dependent protein kinase kinase 2 (Homo sapiens) (UniProt Q96RR4); experiment: Selectivity interaction (ActivX KiNativ screen (kinase selectivity in THP-1 cell lysates)) EUB0000639a CAMKK2; type: subcellular; settings: lysate, at 0.2 µM
[4] = molecular target: Serine/threonine-protein kinase MARK2 (Homo sapiens) (UniProt Q7KZI7); experiment: Selectivity interaction (ActivX KiNativ screen (kinase selectivity in THP-1 cell lysates)) EUB0000639a MARK2; type: subcellular; settings: lysate, at 0.2 µM
[5] = molecular target: T2, Tyrosine-protein kinase TXK (Homo sapiens) (UniProt P42681); experiment: Selectivity interaction (KinomeScan (DiscoverX)) EUB0000092b TXK; settings: at 10 µM
T2 sequence (whole entry): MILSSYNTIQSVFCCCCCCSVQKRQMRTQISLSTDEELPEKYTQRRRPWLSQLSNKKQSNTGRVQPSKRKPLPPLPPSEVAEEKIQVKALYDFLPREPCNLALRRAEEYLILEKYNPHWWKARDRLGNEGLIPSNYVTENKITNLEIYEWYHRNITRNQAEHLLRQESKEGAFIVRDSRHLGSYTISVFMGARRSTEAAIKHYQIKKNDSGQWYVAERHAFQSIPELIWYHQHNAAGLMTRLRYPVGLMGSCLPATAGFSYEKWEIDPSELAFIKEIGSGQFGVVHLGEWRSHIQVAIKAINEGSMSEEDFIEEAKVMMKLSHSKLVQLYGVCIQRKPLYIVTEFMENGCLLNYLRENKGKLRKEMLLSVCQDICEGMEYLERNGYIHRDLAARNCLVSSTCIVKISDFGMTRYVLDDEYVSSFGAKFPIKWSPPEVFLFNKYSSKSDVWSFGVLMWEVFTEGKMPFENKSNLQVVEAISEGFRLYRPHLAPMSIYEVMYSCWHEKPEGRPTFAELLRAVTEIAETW

[6] = molecular target: Dual specificity protein kinase CLK3 (Homo sapiens, UniProt P49761); experiment: Selectivity interaction (KinomeScan (DiscoverX)) EUB0000092b CLK3; settings: at 10 µM
[7] = molecular target: Myosin-IIIa (Homo sapiens) (UniProt Q8NEV4); experiment: Selectivity interaction (KinomeScan (DiscoverX)) EUB0000092b MYO3A; settings: at 10 µM
[8] = molecular target: T3, Dual specificity protein kinase TTK (Homo sapiens) (UniProt P33981); experiment: Selectivity interaction (Ambit KINOMEscan and KiNATiv profiling in Jurkat cells) EUB0000090b TTK; type: cell-based; settings: at 1 µM
T3 sequence (whole entry): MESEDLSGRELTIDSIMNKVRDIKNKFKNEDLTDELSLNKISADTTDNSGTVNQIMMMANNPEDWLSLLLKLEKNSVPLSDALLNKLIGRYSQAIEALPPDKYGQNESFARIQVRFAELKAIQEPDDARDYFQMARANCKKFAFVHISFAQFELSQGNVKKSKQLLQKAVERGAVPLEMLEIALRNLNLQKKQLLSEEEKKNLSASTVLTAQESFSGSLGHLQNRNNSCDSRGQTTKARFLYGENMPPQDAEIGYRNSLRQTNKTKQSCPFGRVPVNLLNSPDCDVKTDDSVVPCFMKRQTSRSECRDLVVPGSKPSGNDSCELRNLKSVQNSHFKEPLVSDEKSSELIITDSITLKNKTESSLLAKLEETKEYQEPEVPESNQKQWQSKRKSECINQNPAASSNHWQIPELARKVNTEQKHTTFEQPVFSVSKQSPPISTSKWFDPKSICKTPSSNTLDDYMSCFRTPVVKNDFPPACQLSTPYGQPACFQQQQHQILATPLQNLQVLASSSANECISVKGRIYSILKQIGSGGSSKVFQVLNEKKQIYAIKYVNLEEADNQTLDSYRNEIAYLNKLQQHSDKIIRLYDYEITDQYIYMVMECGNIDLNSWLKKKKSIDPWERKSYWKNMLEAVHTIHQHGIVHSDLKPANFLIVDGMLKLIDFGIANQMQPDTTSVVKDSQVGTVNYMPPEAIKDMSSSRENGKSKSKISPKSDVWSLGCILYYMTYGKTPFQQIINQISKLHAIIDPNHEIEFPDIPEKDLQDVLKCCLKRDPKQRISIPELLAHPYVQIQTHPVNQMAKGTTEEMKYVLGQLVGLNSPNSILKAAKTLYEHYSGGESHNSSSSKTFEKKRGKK

[9] = molecular target: Serine/threonine-protein kinase SIK1 (Homo sapiens) (UniProt P57059); experiment: Selectivity interaction (Upstate Kinase Profiler service (Millipore)) EUB0000056c SIK1; settings: at 1 µM
Serine/threonine-protein kinase SIK1 (Homo sapiens), sequence (P57059 whole entry): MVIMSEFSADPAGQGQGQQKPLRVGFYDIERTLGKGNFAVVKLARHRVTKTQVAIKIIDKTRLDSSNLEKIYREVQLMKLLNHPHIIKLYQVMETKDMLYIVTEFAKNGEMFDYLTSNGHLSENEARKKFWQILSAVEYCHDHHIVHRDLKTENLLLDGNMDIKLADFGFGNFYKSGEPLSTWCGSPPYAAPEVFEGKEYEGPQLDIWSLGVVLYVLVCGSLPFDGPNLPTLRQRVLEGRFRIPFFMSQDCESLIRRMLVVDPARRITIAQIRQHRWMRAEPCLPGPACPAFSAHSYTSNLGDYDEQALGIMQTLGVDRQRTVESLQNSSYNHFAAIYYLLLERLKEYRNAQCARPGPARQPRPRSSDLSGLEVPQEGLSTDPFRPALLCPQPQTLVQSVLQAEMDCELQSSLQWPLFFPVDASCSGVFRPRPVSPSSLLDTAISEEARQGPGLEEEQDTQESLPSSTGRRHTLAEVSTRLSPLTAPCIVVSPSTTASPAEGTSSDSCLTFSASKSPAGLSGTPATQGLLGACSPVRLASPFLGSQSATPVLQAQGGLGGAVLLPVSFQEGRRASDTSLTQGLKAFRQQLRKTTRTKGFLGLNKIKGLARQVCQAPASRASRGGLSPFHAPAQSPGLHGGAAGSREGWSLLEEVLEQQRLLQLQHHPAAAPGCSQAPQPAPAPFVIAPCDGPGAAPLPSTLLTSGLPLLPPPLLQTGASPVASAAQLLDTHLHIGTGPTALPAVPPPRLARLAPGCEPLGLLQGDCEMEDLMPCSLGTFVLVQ

Dual specificity protein kinase CLK3, sequence (P49761 whole entry, looked up): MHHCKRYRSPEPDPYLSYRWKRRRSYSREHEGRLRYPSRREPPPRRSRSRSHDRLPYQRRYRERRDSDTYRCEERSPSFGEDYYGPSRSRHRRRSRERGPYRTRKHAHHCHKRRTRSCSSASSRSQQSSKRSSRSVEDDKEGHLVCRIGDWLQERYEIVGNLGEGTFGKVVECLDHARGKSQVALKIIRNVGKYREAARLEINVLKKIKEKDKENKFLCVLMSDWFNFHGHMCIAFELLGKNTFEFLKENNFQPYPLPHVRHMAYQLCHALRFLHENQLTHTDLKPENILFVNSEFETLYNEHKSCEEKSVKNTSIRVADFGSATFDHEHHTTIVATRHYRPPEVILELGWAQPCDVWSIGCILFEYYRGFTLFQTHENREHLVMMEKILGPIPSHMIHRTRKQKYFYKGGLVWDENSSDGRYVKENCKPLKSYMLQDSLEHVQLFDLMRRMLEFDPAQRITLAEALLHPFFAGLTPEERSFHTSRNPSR
Serine/threonine-protein kinase MARK2 (Homo sapiens), sequence (Q7KZI7 whole entry): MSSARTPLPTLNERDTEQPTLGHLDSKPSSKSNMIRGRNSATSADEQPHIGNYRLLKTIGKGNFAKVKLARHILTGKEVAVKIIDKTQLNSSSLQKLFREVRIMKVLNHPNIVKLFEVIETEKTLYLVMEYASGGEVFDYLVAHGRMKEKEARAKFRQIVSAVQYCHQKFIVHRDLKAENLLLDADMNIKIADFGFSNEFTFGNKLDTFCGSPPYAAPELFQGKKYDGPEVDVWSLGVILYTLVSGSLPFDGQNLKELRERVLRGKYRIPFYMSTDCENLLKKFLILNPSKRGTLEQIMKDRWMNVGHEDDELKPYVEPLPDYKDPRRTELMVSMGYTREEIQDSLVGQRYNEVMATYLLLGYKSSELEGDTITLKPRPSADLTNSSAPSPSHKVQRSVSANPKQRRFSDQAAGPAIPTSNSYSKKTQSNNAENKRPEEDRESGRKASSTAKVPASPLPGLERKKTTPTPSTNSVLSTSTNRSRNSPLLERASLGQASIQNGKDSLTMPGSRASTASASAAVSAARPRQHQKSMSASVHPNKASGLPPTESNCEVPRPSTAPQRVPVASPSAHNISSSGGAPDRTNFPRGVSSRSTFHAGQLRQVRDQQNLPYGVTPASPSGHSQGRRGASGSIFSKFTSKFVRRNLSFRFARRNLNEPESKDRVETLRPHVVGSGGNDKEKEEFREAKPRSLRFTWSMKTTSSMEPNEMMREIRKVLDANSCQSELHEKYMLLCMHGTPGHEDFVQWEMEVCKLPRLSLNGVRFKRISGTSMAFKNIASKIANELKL
Calcium/calmodulin-dependent protein kinase kinase 2 (Homo sapiens), sequence (Q96RR4 2-588 limits assumed): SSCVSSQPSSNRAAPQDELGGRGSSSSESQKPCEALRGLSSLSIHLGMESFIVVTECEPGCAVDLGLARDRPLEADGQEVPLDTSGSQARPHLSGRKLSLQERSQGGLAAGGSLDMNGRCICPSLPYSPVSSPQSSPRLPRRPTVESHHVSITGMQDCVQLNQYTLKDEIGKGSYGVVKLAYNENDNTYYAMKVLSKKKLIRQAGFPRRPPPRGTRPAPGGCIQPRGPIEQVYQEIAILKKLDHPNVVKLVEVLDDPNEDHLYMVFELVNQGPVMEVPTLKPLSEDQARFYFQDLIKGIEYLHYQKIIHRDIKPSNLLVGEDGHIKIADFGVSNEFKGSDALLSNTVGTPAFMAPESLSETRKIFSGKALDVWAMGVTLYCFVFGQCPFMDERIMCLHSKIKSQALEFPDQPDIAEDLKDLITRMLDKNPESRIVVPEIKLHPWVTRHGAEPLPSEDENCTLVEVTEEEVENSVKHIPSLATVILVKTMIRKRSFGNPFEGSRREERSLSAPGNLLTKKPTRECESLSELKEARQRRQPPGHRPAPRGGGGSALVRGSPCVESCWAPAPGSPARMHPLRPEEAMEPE
Serine/threonine-protein kinase 10 (Homo sapiens), sequence (O94804 whole entry, looked up): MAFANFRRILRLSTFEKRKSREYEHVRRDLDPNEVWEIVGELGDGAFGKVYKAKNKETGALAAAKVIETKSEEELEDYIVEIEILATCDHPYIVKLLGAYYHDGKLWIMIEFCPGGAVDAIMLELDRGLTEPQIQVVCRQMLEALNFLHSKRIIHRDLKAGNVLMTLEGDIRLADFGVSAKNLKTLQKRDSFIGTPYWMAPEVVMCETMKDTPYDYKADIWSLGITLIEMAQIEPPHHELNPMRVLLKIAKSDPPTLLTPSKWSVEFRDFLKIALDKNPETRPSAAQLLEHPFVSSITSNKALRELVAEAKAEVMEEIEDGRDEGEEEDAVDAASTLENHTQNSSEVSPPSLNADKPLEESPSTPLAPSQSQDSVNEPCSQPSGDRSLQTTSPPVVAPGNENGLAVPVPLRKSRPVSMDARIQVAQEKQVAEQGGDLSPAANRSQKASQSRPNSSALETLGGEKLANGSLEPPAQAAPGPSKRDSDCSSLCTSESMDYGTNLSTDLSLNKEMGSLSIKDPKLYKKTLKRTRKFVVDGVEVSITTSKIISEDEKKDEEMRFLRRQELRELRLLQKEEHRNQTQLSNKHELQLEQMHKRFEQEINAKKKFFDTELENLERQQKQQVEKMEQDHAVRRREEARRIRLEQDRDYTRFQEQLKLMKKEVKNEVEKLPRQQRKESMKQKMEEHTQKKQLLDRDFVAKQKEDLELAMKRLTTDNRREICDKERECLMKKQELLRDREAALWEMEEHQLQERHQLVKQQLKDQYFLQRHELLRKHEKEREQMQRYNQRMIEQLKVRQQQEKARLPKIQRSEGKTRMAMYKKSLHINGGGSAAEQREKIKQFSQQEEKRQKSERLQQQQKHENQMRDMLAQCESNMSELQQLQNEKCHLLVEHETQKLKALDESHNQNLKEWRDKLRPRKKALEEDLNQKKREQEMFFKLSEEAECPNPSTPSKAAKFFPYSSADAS

## CN(C(=O)c1cnn2cccnc12)c1cc2c(cc1N1CCOCC1)C(=O)N(C[C@@H](F)C(C)(C)O)C2
[1]
  dTM: -0.4 K

## CC[C@@H]1[C@H](F)C(=O)N[C@@H]1COc1nccc2cc(C(N)=O)c(OC)cc12 [ZIMLOVISERTIB]
[2]
  % of inhibition: -10.5%
[3]
  % of inhibition: -5.9%
[4]
  % of inhibition: 8.4%

## CCC(=O)N1CCN(c2ccc(-n3c(=O)ccc4cnc5ccc(-c6cnc7ccccc7c6)cc5c43)cc2C(F)(F)F)CC1
[5]
  % of control: 54%
[6]
  % of control: 43%
[7]
  % of control: 100%

## CN(C)C/C=C/C(=O)Nc1ccc(C(=O)N2CCCC(Nc3ncc(Cl)c(-c4c[nH]c5ccccc45)n3)C2)cc1 (centres undefined)
[8]
  % of control: 81%

## Cc1ccc(-c2ccc3c(ccc4sc5c(c43)NC[C@@H](C)NC5=O)n2)cn1
[9]
  % of inhibition: 4%
